Test results reported in ChEMBL document CHEMBL1255343, “Activities of daptomycin and comparative antimicrobials, singly and in combination, against extracellular and intracellular Staphylococcus aureus and its stable small-colony variant in human monocyte-derived macrophages and in broth” (2008).
≈ marks a conversion by molar mass, not a printed value. Calls of active or inactive are those of the source. The calls are words filed in the database; no cut-off is given here.

How the values were obtained:
[1] = system: Staphylococcus aureus; test: Antimicrobial activity against Staphylococcus aureus 2546; format: functional
[2] = system: Staphylococcus aureus; test: Antimicrobial activity against Staphylococcus aureus 2547 small colony variants; format: functional
[3] = system: Staphylococcus aureus; test: Antimicrobial activity against Staphylococcus aureus 2548; format: functional
[4] = system: Staphylococcus aureus; test: Antimicrobial activity against Staphylococcus aureus 2549 small colony variants; format: functional
[5] = system: Staphylococcus aureus; test: Antimicrobial activity against intracellular Staphylococcus aureus 2548 infected in human monocyte-derived macrophages after 48 hrs; format: functional, organism-based
[6] = system: Staphylococcus aureus; test: Antimicrobial activity against extracellular Staphylococcus aureus 2546 after 4 hrs in MH-II broth; format: functional, organism-based
[7] = system: Staphylococcus aureus; test: Antimicrobial activity against extracellular Staphylococcus aureus 2548 after 4 hrs in MH-II broth; format: functional, organism-based
[8] = system: Staphylococcus aureus; test: Antimicrobial activity against extracellular Staphylococcus aureus 2549 small colony variants after 4 hrs in MH-II broth; format: functional, organism-based

| Compound | MIC [1] [µg/mL] | MIC [2] [µg/mL] | MIC [3] [µg/mL] | MIC [4] [µg/mL] | Activity [5] | Activity [6] | Activity [7] | Activity [8] |
| --- | --- | --- | --- | --- | --- | --- | --- | --- |
| CCCCCCCCCC(=O)N[C@@H](Cc1c[nH]c2ccccc12)C(=O)N[C@H](CC(N)=O)C(=O)N[C@@H](CC(=O)O)C(=O)N[C@@H]1C(=O)NCC(=O)N[C@@H](CCCN)C(=O)N[C@@H](CC(=O)O)C(=O)N[C@H](C)C(=O)N[C@@H](CC(=O)O)C(=O)NCC(=O)N[C@H](CO)C(=O)N[C@@H]([C@H](C)CC(=O)O)C(=O)N[C@@H](CC(=O)c2ccccc2N)C(=O)O[C@@H]1C | 1 (≈ 0.617 µM) | 1 (≈ 0.617 µM) | 1 (≈ 0.617 µM) | 0.5 (≈ 0.309 µM) | Active | Active | Active | Active |
| CCC[C@@H]1C[C@@H](C(=O)N[C@@H]([C@H]2O[C@H](SC)[C@H](O)[C@@H](O)[C@H]2O)[C@H](C)Cl)N(C)C1 [CLINDAMYCIN] | 0.125 (≈ 0.294 µM) | 0.25 (≈ 0.588 µM) | 0.06 (≈ 0.141 µM) | 0.25 (≈ 0.588 µM) | – | – | – | – |
| Cc1onc(-c2ccccc2)c1C(=O)N[C@@H]1C(=O)N2[C@@H]1SC(C)(C)[C@@H]2C(=O)O [OXACILLIN] | 0.25 (≈ 0.623 µM) | 0.5 (≈ 1.25 µM) | 0.25 (≈ 0.623 µM) | 0.5 (≈ 1.25 µM) | – | – | – | – |
| CO[C@H]1/C=C/O[C@@]2(C)Oc3c(C)c(O)c4c(O)c(c(/C=N/N5CCN(C)CC5)c(O)c4c3C2=O)NC(=O)/C(C)=C\C=C\[C@H](C)[C@H](O)[C@@H](C)[C@@H](O)[C@@H](C)[C@H](OC(C)=O)[C@@H]1C [RIFAMPIN] | 0.125 (≈ 0.152 µM) | 0.06 (≈ 0.0729 µM) | 0.125 (≈ 0.152 µM) | 0.06 (≈ 0.0729 µM) | Active | – | – | – |
| GENTAMICIN | 2 | 4 | 8 | 16 | Active | Active | Active | Active |
